Test results from PubChem BioAssay AID256 (DTP/NCI, 2004).
Where “and” joins values, the source holds several entries; their conditions need not be identical. Equal values may be shown once. Toxic doses and inconclusive results are not listed. Rule for the calls: active = survival T/C of 150% or more; inactive = T/C below 125% in these data.

Tested on: CD2F1 mice, L1210 leukemia ip, survival T/C
Assay: NCI In Vivo Anticancer Drug Screen. Data for tumor model L1210 Leukemia (intraperitoneal) in CD2F1 (CDF1) mice
Conditions: endpoint: mean survival time, higher = longer survival
How it was run: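 Mice carrying a transplanted tumor received test compound or vehicle alone. The value is the measurement in the treated group divided by that in the vehicle-treated control group.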

[1] = dose: 100.0 mg/kg/injection, schedule: Q01DX009 (ip), vehicle: saline
[2] = dose: 100.0 mg/kg/injection, schedule: Q04DX003 (ip), vehicle: saline
[3] = dose: 200.0 mg/kg/injection, schedule: Q01DX009 (ip), vehicle: saline
[4] = dose: 200.0 mg/kg/injection, schedule: Q04DX003 (ip), vehicle: saline
[5] = dose: 400.0 mg/kg/injection, schedule: Q01DX009 (ip), vehicle: saline
[6] = dose: 400.0 mg/kg/injection, schedule: Q04DX003 (ip), vehicle: saline
[7] = dose: 100.0 mg/kg/injection, schedule: Q04DX003 (ip), vehicle: saline with Tween-80
[8] = dose: 200.0 mg/kg/injection, schedule: Q04DX003 (ip), vehicle: saline with Tween-80
[9] = dose: 400.0 mg/kg/injection, schedule: Q04DX003 (ip), vehicle: saline with Tween-80

Measured: T/C

CCCCCCCCCCOCCCCCCCCCC
inactive: [1] 95 % of control | [2] 94 % of control | [3] 98 % of control | [4] 101 % of control | [5] 97 % of control | [6] 94 % of control

S=c1[nH]ncn1/N=C/c1ccccc1Cl
inactive: [7] 95 % of control | [8] 101 % of control | [9] 89 % of control

O=C(C1=C/C(=C\c2ccccc2)CCC1)c1ccccc1
inactive: dose: 100.0 mg/kg/injection, schedule: Q01DX009 (ip), vehicle: saline with Tween-80 98 % of control | [7] 104 % of control | dose: 200.0 mg/kg/injection, schedule: Q01DX009 (ip), vehicle: saline with Tween-80 94 % of control | [8] 100 % of control | dose: 400.0 mg/kg/injection, schedule: Q01DX009 (ip), vehicle: saline with Tween-80 88 % of control | [9] 102 % of control

[CH3][Sn]1([CH3])[O]C2C(CO)OC(n3ccc(=O)[nH]c3=O)C2[O]1 (stereo unspecified)
inactive: dose: 12.5 mg/kg/injection, schedule: Q01DX005 (ip), vehicle: other 95 % of control | dose: 25.0 mg/kg/injection, schedule: Q01DX005 (ip), vehicle: other 101 % of control | dose: 50.0 mg/kg/injection, schedule: Q01DX005 (ip), vehicle: other 92 % of control

COC(=O)/C=N/NS(=O)(=O)c1cccc(N)c1
inactive: dose: 25.0 mg/kg/injection, schedule: Q04DX003 (ip), vehicle: water 110 % of control | dose: 50.0 mg/kg/injection, schedule: Q04DX003 (ip), vehicle: water 104 % of control | dose: 100.0 mg/kg/injection, schedule: Q04DX003 (ip), vehicle: water 108 % of control | dose: 200.0 mg/kg/injection, schedule: Q04DX003 (ip), vehicle: water 112 % of control

CCOC(=O)NC(NC(=O)OCC)C(Br)(Br)Br
inactive: dose: 200.0 mg/kg/injection, schedule: Q01DX001 (ip), vehicle: Klucel (hydroxypropylcellulose) (HPC) 103 % of control | dose: 400.0 mg/kg/injection, schedule: Q01DX001 (ip), vehicle: Klucel (hydroxypropylcellulose) (HPC) 95 % of control

COc1cccc(C(=O)NC[n+]2ccccc2)c1
inactive: [2] 110 % of control

COC1=C(N2CC2)C(=O)C(OC)=C(N2CC2)C1=O
inactive: dose: 0.9 mg/kg/injection, schedule: Q01DX015 (ip), vehicle: saline 115 % of control | dose: 1.3 mg/kg/injection, schedule: Q01DX015 (ip), vehicle: saline 119 % of control | dose: 3.0 mg/kg/injection, schedule: Q01DX015 (ip), vehicle: saline 113 % of control

CCOC(=O)c1[nH]c(=S)[nH]c1C(=O)OCC
inactive: dose: 100.0 mg/kg/injection, schedule: Q01DX001 (ip), vehicle: saline 100 % of control

CC1CC(C)(C)C(C[NH-])C1[NH-].[Cl][Pt+2][Cl] (stereo unspecified)
inactive: dose: 3.12 mg/kg/injection, schedule: Q04DX003 (ip), vehicle: saline 115 % of control | [4] 94 % of control
active: dose: 50.0 mg/kg/injection, schedule: Q04DX003 (ip), vehicle: saline 261 % of control | [2] 158 % of control and 211 % of control

Cc1ccc(S(=O)(=O)/C=C(/I)C(=O)c2ccccc2)cc1
inactive: [1] 90 % of control | [2] 100 % of control | [3] 93 % of control | [4] 96 % of control | [5] 88 % of control | [6] 108 % of control

Cn1nc2ccccc2n1
inactive: dose: 118.0 mg/kg/injection, schedule: Q04DX003 (ip), vehicle: saline with Tween-80 104 % of control | dose: 178.0 mg/kg/injection, schedule: Q04DX003 (ip), vehicle: saline with Tween-80 98 % of control | dose: 266.0 mg/kg/injection, schedule: Q04DX003 (ip), vehicle: saline with Tween-80 109 % of control | [9] 96 % of control

COc1cccc2c1C(=O)OC2=O
inactive: dose: 12.5 mg/kg/injection, schedule: Q01DX005 (ip), vehicle: Klucel (hydroxypropylcellulose) (HPC) 101 % of control | dose: 25.0 mg/kg/injection, schedule: Q01DX005 (ip), vehicle: Klucel (hydroxypropylcellulose) (HPC) 101 % of control | dose: 50.0 mg/kg/injection, schedule: Q01DX005 (ip), vehicle: Klucel (hydroxypropylcellulose) (HPC) 95 % of control | dose: 100.0 mg/kg/injection, schedule: Q01DX005 (ip), vehicle: Klucel (hydroxypropylcellulose) (HPC) 94 % of control | dose: 200.0 mg/kg/injection, schedule: Q01DX005 (ip), vehicle: Klucel (hydroxypropylcellulose) (HPC) 95 % of control

COc1ccc(Br)cc1C1OC(=O)c2c(OC)c(OC)cc(N)c21 (stereo unspecified)
inactive: [7] 98 % of control | [8] 92 % of control | [9] 88 % of control
